Data taken from US20080269259A1, “Regulation of Autophagy and Cell Survival” (THE TRUSTEES OF THE UNIVERSITY OF PENNSYLVANIA, priority 2005, published 2008).

Key:
[1] = test system: Myc/p53ER^TAM/GFP-LC3 cells; assay: GFP-LC3 fluorescence imaging; format: cell-based, mice; settings: hTAM 250 mM, CQ 5 pM as printed; 48 hours
Procedure: For GFP-LC3 fluorescence imaging, Myc/p53ER^TAM/IGFP-LC3 cells (see below) were exposed to the indicated treatments and fixed with 4% paraformaldehyde for 30 minutes at room temperature, washed three times and centrifuged onto slides. DAPI counterstain was used to identify cells with intact nuclei. All fluorescence imaging was performed and digitally captured at 100× magnification on a Nikon Eclipse E800 fluorescent microscope.

[2] = test system: Bax^−/−Bak^−/− cells; assay: Viability of IL-3 dependent Bax−/−Bak−/− cells (propidium iodide exclusion); format: cell-based, mice; settings: for effect on survival of cells grown in the presence of IL-3 / death of the cells in the cultures: 5 mM 3-MA or 10 μM CQ; for effect on survival of cells grown in the presence of IL-3: IL-3 present; for death of the cells in the cultures: by 48 hours, cells deprived of growth factor for 6 weeks
Procedure: Immortalized IL-3 dependent cells were obtained from the bone marrow of two independent Bax^−/−Bak^−/− mice using previously established protocols. Subsequent experiments using these cells were performed in complete media consisting of: RPMI 1640 medium (Invitrogen) supplemented with 10% heat inactivated fetal bovine serum (Gemini), 10 units/mL penicillin/streptomycin and 2 mM L-glutamine (Invitrogen), 50 μm β-mercaptoethanol (Sigma) and 10 mM HEPES (Invitrogen). For cells grown in the presence of IL-3, the complete medium was supplemented with 3.5 ng/mL of murine recombinant IL-3 (BD Pharmingen). For IL-3 withdrawal experiments, cells were washed three times in medium without IL-3 and serum. After the final wash, cells were resuspended in complete medium without IL-3. Medium for cells cultured in the absence of IL-3 was replaced with fresh complete medium without IL-3 every 10 days. […] Cell size and number was assessed by using a Coulter Z2 particle analyzer. For readdition experiments, cells grown in the absence of IL-3 at the indicated time points were pelleted by centrifugation and resuspended in complete media containing 3.5 ng/mL IL-3. The FL5.12 cell line was maintained in complete media supplemented with 0.35 ng/mL IL-3. For measurement of mitochondrial membrane potential, cells were incubated for 30 minutes with 50 nM of tetramethyl rhodamine ethyl ester (TMRE; Molecular Probes) in the presence or absence of 50 μM CCCP (Sigma). Viability was performed by incubating cells with annexin V conjugated fluorescein isothiocyanate (BD Pharmingen) in buffer containing 1 μg/mL propidium iodide (Molecular Probes) followed by FACS analysis. DNA fragmentation assay was performed as previously described.

[3] = test system: Bax^−/−Bak^−/− cells; assay: ATP levels in growth factor-deprived cells; format: cell-based, mice; settings: IL-3 deprived cells; for ATP levels: 8 hours after addition of drug
Procedure: The conversion of 5-^3H-glucose to ^3H2O was used to measure the glycolytic rate. The level of ATP was measured as described previously.

[4] = test system: LC3; assay: LC3 immunofluorescence staining of autophagosomes; format: cell-based, mice; settings: cells without IL-3 for 6 weeks, 18 hours of 5 mM 3-MA or 10 μM CQ
Procedure: Antibodies (all 1:1000 dilution) used were: GLUT1 (Research Diagnostic Inc.), calreticulin (StressGen), STAT3 (Cell Signalling), actin (Sigma), LC3 (gift from T. Yoshimori), ATG5 (gift from N. Mizushima), Bax (Santa Cruz) and Bak (Upstate Technologies). For immunofluorescence staining, cells were fixed in 4% paraformaldehyde and permeabilized with 0.1% Triton X-100, washed 3 times (PBS containing 0.01% Triton X-100 and 10% FBS), followed by incubation with […]. […] Images were captured using a Zeiss 510 confocal microscope. For surface analysis, cells were fixed in 4% paraformaldehyde, stained with 1:100 biotin-anti-IL-3 alpha chain receptor (BD Pharmingen) and a 1:100 dilution of streptavidin conjugated fluorescein isothiocyanate (BD Pharmingen) followed by FACS analysis.

[5] = test system: Myc/p53ER^TAM lymphomas; assay: Myc/p53ER^TAM lymphoma tumor growth, regression and recurrence in syngeneic mice; format: in vivo
Procedure: All experiments were performed in accordance with approved animal safety protocols. All experiments were carried out using 8-10 week old C57BL/6X129F1 mice obtained from The Jackson Laboratory (Bar Harbor, Me.). Bone marrow cell harvest and production of bone marrow-derived neoplasms followed the protocol previously described. After primary tumor formation, tumor cells were harvested in ice cold PBS by passage through a […] nylon mesh (BD Bioscience, Bedford, Md.) and expanded in vivo by subcutaneous injection into the flanks of syngeneic mice. For tissue analysis, all animals were sacrificed individually by CO2 asphyxiation and tissue was harvested immediately. Tumors were harvested in ice cold PBS. For each tumor, sections of visually viable tumor tissue were fixed in 10% formalin for preparation of paraffin-embedded sections, glutaraldehyde for electron microscopy (see below). Tumor cell lysates were achieved through manual agitation of remaining tumor tissue in RIPA buffer.
(§1) For tamoxifen (TAM) treatment, the hormone powder (Sigma, St. Louis) was dispersed, via sonication, in peanut oil (Sigma) at a concentration of 10 mg/mL. The administration of TAM was done via daily IP injections at the dose of 1 mg per mouse.
(§2) 4-hydroxytamoxifen (hTAM) (Sigma) was dissolved in ethanol. Cyclophosphamide (Sigma) was dissolved in PBS. Tumors were measured on a daily basis using calipers and tumor volume was calculated using the formula: (mm^3)=AxBx[A+B]/2

[6] = test system: Myc/p53ER^TAM lymphoma cells; assay: In vitro growth of Myc/p53ER^TAM lymphoma cells (cell number); format: cell-based, mice; settings: Mus musculus, 96 h; cell number measured on day 4, medium changed daily, single agent; read-out: IC50, impairment of lymphoma cell growth
Description: For all in vitro experiments media+supplements and drugs treatments were changed daily.

[7] = Observed toxicity in treated tumor-bearing mice
Procedure: as §1, §2

[8] = test system: Myc/p53ER^TAM lymphomas; assay: Electron microscopy and quantification of autophagosomes in tumors; format: in vivo, mice; settings: 24 hours after initiation of TAM/PBS compared to 48 hours of PBS alone; p<0.0005
Description: Cells were postfixed with 2% osmium tetroxide followed by an increasing gradient dehydration step using ethanol and propylene oxide. […] Data is presented as mean ±SD.

[9] = test system: cleaved caspase 3; assay: Western blot of cleaved caspase 3 in tumor lysates; format: in vivo, mice; settings: lysates obtained at 48 hours; data not shown
Description: Cultured cells were lysed in RIPA buffer. Tumor lysates were obtained by manual agitation of tumor tissue and lysis in RIPA. Lysates were standardized for protein content and resolved by SDS-PAGE on 14% NuPAGE gels (Invitrogen, St Louis, Mo.). Nitrocellulose blots were probed with antibodies against cleaved caspase 3 (rabbit monoclonal antibody; […]) (Cell Signaling, Beverly, Mass.); anti-actin (mouse monoclonal antibody; 1:10,000) (Sigma, St. Louis, Mo.); anti-ATG5 (rabbit polyclonal antibody; 1:2000) (gift from N. Mizushima).

4-hydroxytamoxifen [hTAM]
punctate GFP-LC3 fluorescence [1]: increased number of punctate LC3 associated vesicles

Cn1cnc(N)c2ncnc1-2 [3-MA, 3-methyladenine]
effect on survival of cells grown in the presence of IL-3 [2]: no significant effect | death of the cells in the cultures [2]: 72% | ATP levels [3]: dramatic decline in ATP levels | number of autophagosomes (LC3 redistribution from punctate to diffuse staining) [4]: reduction in the number of autophagosomes

CCN(CC)CCCC(C)Nc1ccnc2cc(Cl)ccc12 (centres unmarked) [CQ, chloroquine]
effect on survival of cells grown in the presence of IL-3 [2]: no significant effect | death of the cells in the cultures [2]: 82% | tumor regression ([5]; CQ 50 or 60 mg/kg/day IP daily, single agent): not observed | average time to tumor recurrence ([5]; cyclophosphamide 50 mg/kg IP once followed by daily CQ 60 mg/kg/day IP for 13 days): 12.5 ± 6.6 days | ATP levels [3]: dramatic decline in ATP levels | punctate GFP-LC3 fluorescence [1]: Some punctate GFP-LC3 fluorescence | number of autophagosomes (LC3 redistribution from punctate to diffuse staining) [4]: reduction in the number of autophagosomes | IC50 [6]: 3 µM | additional toxicity in treated animals ([7]; CQ cotreatment with TAM or with cyclophosphamide): did not result in additional toxicity | observed toxicity ([7]; daily IP 50 mg/kg/day or 60 mg/kg/day): no observed toxicity | tolerability of systemic administration ([7]; for up to 20 days): well tolerated

CC/C(=C(\c1ccccc1)c1ccc(OCCN(C)C)cc1)c1ccccc1 [TAM/PBS, tamoxifen]
mice with complete clinical regression of their tumor ([5]; TAM/CQ and TAM/HCQ pooled in one figure, p<0.005): 8% | increase of percentage of tumor cells with autophagosomes [8]: 30 fold | cleaved caspase 3 in tumor lysates [9]: absent

O=P1(N(CCCl)CCCl)NCCCO1 (centres unmarked) [cyclophosphamide]
average time to tumor recurrence ([5]; cyclophosphamide 50 mg/kg IP once followed by daily PBS): 5.25 ± 1.9 days | tumor regression ([5]; single dose cyclophosphamide 50 mg/kg IP with or without CQ): complete tumor regression in all treated mice

COC(=O)C(C)=O [methyl pyruvate]
effect on death observed in response to 3-MA and CQ ([2]; 10 mM methyl pyruvate added at the time of 3-MA or CQ treatment, IL-3 deprived 6 weeks): suppressed the death | effect on ATP decline caused by 3-MA or CQ ([3]; 10 mM MP, 8 hours): could be suppressed
